The record followed here is US11661404B2, “Prodrug compounds activated by AKR1C3 and their use for treating hyperproliferative disorders” (priority 2018, dated 2023).

pIC50: −log10 of the molar value. Read-outs that look alike come from different tables or passages of the source.

Data set [1] deals with SNU398 hepatocellular carcinoma cells engineered to over-express AKR1C3. The data set can be described thus: Anti-proliferative IC50 assay, SNU398 over-expressing AKR1C3. Format: cell-based, human. The conditions noted are these: for pIC50: Homo sapiens. How it is done:
(§1) Four hundred cells were seeded in a volume of 100 μL in each well of a 96-well plate. The cells were left in a humidified incubator (37° C., 5% CO2) for 2 hours in order to enable attachment to the surface of the wells prior to compound addition. All compounds were prepared as stocks in DMSO and stored at −80° C. Frozen stocks of compounds were thawed immediately prior to addition to cells. Working solutions of each compound were made in α-MEM+5% FBS (v/v) at 3 times the required final concentration for the top well. The final concentration of DMSO in the α-MEM solution was ensured to not exceed 1% of the total volume. 50 μL of the working solution was added to the top wells (in duplicates) and gently mixed. The solubility of some compounds precluded the working solution in α-MEM to be 3 times the desired top well concentration. […] A 3-fold serial dilution was carried out along the plate starting from the top well. The first column of wells on the plate served as blanks (containing α-MEM+FBS) and the second column served as control wells (containing cells with no compound added). Following compound addition, the plates were incubated for 4 hours in a humidified incubator (37° C., 5% CO2).
(§2) Following the 4 hour compound exposure, the 96-well plates were washed three times by aspirating media with an Immuno Washer (Nunc) and each well replaced with 150 μL of α-MEM+5% (v/v) FBS+1% (v/v) P/S. The plates were left in a humidified incubator (37° C., 5% CO2) for 5 days to enable cell growth. The cells in 96-well plates were fixed 5 days after compound exposure by adding 50 μL of a 40% (w/v) trichloroacetic acid (TCA) solution so as to obtain a final TCA concentration of 10% in each well. The plates were left in the refrigerator (4° C.) for 1 hour and subsequently rinsed 3 times in tap water. Any excess water was left to drain and the cells were stained with 50 μL of 0.4% (w/v) sulforhodamine B (SRB). The plates with the SRB stain were left in the dark for 30 minutes. Excess stain was removed from the wells by rinsing the plates 4 times in water containing 1% (v/v) acetic acid. The stain was solubilised by adding 100 μL of 10 mM unbuffered Tris (pH 10.5) to each well and the plates were left in a shaker in a dark environment at room temperature for at least 1 hour. The absorbance values of the wells were determined by an ELx 808 Absorbance Microplate Reader (Bio-Tek Instruments, Winooski, Vt., USA), with the wavelength of the measurement filter set at 490 nm and a reference filter set at 450 nm. The absorbance of the reference filter was subtracted from the measurement filter to obtain a final absorbance of λ490-450 nm. The absorbance data was analysed and IC50 values determined by the KC4 microplate data analysis software (KC4™ V3.4, Bio-Tek).
(§3) Anti-proliferative IC50 assays were repeated as described above including the addition of 3 μM SN34037, a selective and potent small molecule inhibitor of AKR1C3.
(§4) Materials and methods used are as described for Example 9. […] This is a surprising finding and considerably greater than the approximately 77-fold, 270-fold and 400-fold increase in sensitivity observed for PR-104A, SN33540 and SN34454, respectively. In all cases, this increase in cytotoxicity resulting from expression of AKR1C3 can be substantially reversed by addition of an AKR1C3 inhibitor (SN34037), directly implicating metabolism of the prodrugs by AKR1C3 in the observed increase in cytotoxicity. As an important control, introduction of SN34037 had no anti-proliferative effects in wild-type SNU398 cells treated with compounds of the invention.

For data set [2], the system named is H460 lung cancer xenografts. The experiment in a line: Tumour growth delay, H460 xenografts. Format: in vivo, NIH-III mice. Conditions: q4dx3 intraperitoneal; for tolerability of schedule: 237, 178 and 178 μmol/kg. An excerpt: Specific pathogen-free female homozygous nude NIH-III (NIH-Lyst^bg Foxn1^nu Btk^xid) mice were bred by the Vernon Jansen Unit (shared vivarium, University of Auckland). Animals were housed in Techniplast microisolator cages and provided with a standard twelve hour day-night light schedule. Animals received standard rodent diet (Harlan Teklad diet 2018i) and water ad libitum. All animal studies were approved by the University of Auckland Animal Ethics Committee.
Animals weighed 18-25 g at the time of tumour inoculation. Tumours were grown subcutaneously on the right flank of mice by inoculating cells grown in tissue culture (1×10^7 cells in 100 uL serum free α-MEM). Tumour sizes were monitored three times weekly using electronic callipers and treatments were initiated once tumour diameter reached ≥7 mm.
Tumour bearing mice were randomised into the appropriate treatment groups and tumour size and body weight recorded. Test compounds were formulated on the day of the experiment and kept in foil-wrapped tubes out of direct fluorescent light. If recruitment of animals occurred over multiple days, the drug stocks were aliquoted into tubes and frozen once at −80° C. until required. Mice were treated with a single (or q4dx3 or q4dx4 or q4dx6) dose of a compound of the invention by intraperitoneal injection and thereafter tumour size and body weight was monitored every second day. Tumour volume was calculated as […] (l×w×w)/6, where l is the major axis and w is the perpendicular minor axis. Animals were culled when they had reached the appropriate survival endpoint or when body weight loss exceeded 20% of the pre-treatment value.

In data set [3] the test system is wild-type SNU398 hepatocellular carcinoma cells. The data set can be described thus: Anti-proliferative IC50 assay, wild-type SNU398. Format: cell-based. The conditions noted are these: Homo sapiens. The method, then: as §1, §2, §3, §4
The test system of data set [4] is wild-type PLC/PRF/5 hepatocellular carcinoma cells. The experiment in a line: Anti-proliferative IC50 assay, wild-type PLC/PRF/5. Format: cell-based, human. The conditions noted are these: for pIC50: Homo sapiens, PLC-PRF-5. The method, then:
as §1, §2, §3
Materials and methods used are as described for Example 9.

[5] abbreviates: SNU-398, read-out: SNU398-AKR1C3 +AKR1C3 Inhibitor Anti-proliferative IC50.
Where [6] appears, read: SNU-398, read-out: SNU398-AKR1C3 Anti-proliferative IC50.
Where [7] appears, read: SNU-398, read-out: SNU398-WT +AKR1C3 Inhibitor Anti-proliferative IC50.
[8] abbreviates: SNU-398, read-out: SNU398-WT Anti-proliferative IC50.
Setting [9] is: read-out: PLC/PRF/5-WT Anti-proliferative IC50.
The mark [10] stands for this setting: with 3 μM SN34037, read-out: PLC/PRF/5-WT +AKR1C3 Inhibitor Anti-proliferative IC50.

As for `CN1CCN(C(=O)c2cc([N+](=O)[O-])ccc2N(CCBr)CCOS(C)(=O)=O)CC1` [SN34454, reference compound], the pIC50 in data set [1] (setting [5]) was 4.20; in data set [1] (setting [6]), 6.82; in data set [3] (setting [7]), 4.31; in data set [3] (setting [8]), 4.22; in data set [4] (setting [9]), 3.95; in data set [4] (setting [10]), 3.88. In addition, the “increase in sensitivity when SNU398 cells express AKR1C3” value in data set [1] (SNU398-WT vs SNU398-AKR1C3) was ~400 fold. In addition, the tolerability of schedule result in data set [2] was “well-tolerated”. The “anti-tumour efficacy (mean tumour volume)” value in data set [2] (SN34454 237, 602 178, 641 178 μmol/kg, FIG. 2) is reported as “anti-tumour efficacy”.
For the molecule `CN1CCN(C(=O)c2cc([N+](=O)[O-])ccc2N(CCBr)CCBr)CC1` [SN34118, reference compound], the pIC50 in data set [4] (setting [9]) is 3.94; in data set [4] (setting [10]) it was 3.76.
With `O=[N+]([O-])c1ccc(N(CCBr)CCBr)c(S(=O)(=O)N2CCN(CC(O)CO)CC2)c1` (stereo not shown) [Compound 566, 3-(4-((2-(bis(2-bromoethyl)amino)-5-nitrophenyl)sulfonyl)piperazin-1-yl)propane-1,2-diol], the pIC50 was 5.19 in data set [1] (setting [5]), 7.96 in data set [1] (setting [6]), 4.99 in data set [3] (setting [7]) and 5.02 in data set [3] (setting [8]).
Consider `CS(=O)(=O)OCCN(CCBr)c1ccc([N+](=O)[O-])cc1S(=O)(=O)N1CCN(CC(O)CO)CC1` (stereo not shown) [Compound 605, 2-((2-bromoethyl)(2-((4-(2,3-dihydroxypropyl)piperazin-1-yl)sulfonyl)-4-nitrophenyl)amino)ethyl methanesulfonate], for which the pIC50 in data set [1] (setting [5]) was 4.98; in data set [1] (setting [6]), 7.55; in data set [3] (setting [7]), 4.84; in data set [3] (setting [8]), 4.79.
On to `CN1CCN(S(=O)(=O)c2cc([N+](=O)[O-])ccc2N(CCBr)CCOS(C)(=O)=O)CC1` [Compound 602, 2-((2-bromoethyl)(2-((4-methylpiperazin-1-yl)sulfonyl)-4-nitrophenyl)amino)ethyl methanesulfonate], for which the pIC50 was 5.58 in data set [1] (setting [5]); 8.52 in data set [1] (setting [6]); 5.18 in data set [3] (setting [7]); 5.17 in data set [3] (setting [8]); 5.92 in data set [4] (setting [9]); 4.63 in data set [4] (setting [10]). In addition, the tolerability of schedule entry in data set [2] is reported as “well-tolerated”. In data set [4], the “more cytotoxic in PLC/PRF/5 cells than SN34454” value was found to be 94 fold.
On to `CN1CCN(S(=O)(=O)c2cc([N+](=O)[O-])ccc2N(CCOS(C)(=O)=O)CCOS(C)(=O)=O)CC1` [Compound 641, ((2-((4-methylpiperazin-1-yl)sulfonyl)-4-nitrophenyl)azanediyl)bis(ethane-2,1-diyl) dimethanesulfonate], for which the pIC50 was 5.29 in data set [1] (setting [5]); 8.40 in data set [1] (setting [6]); 4.81 in data set [3] (setting [7]); 4.99 in data set [3] (setting [8]); 5.85 in data set [4] (setting [9]); 4.39 in data set [4] (setting [10]). The tolerability of schedule entry in data set [2] is given as “well-tolerated”.
As for `CS(=O)(=O)OCCN(CCBr)c1c(C(=O)NCCO)cc([N+](=O)[O-])cc1[N+](=O)[O-]` [PR-104A, 2-((2-bromoethyl)(2-((2-hydroxyethyl)-carbamoyl)-4,6-dinitrophenyl)amino)ethyl methanesulfonate, reference compound], the pIC50 is 4.05 in data set [1] (setting [5]); 5.94 in data set [1] (setting [6]); 4.03 in data set [3] (setting [7]); 4.05 in data set [3] (setting [8]); 3.96 in data set [4] (setting [9]); 3.74 in data set [4] (setting [10]).
